Data as given in US11331299B2, “Medicinal use of serrulatane diterpenes” (The University of Sydney, priority 2016, dated 2022).
Where two headings read alike, the source gives them in different places. Blank lines part the entries; values can stand above or below the compound they belong to.

How the values were obtained:
[1] = target: T1, USP 21 (h) (Homo sapiens, UniProt Q9UK80); conditions: reference compound; LanthaScreen DUB substrate 10 nM, 15 min/RT; cited from earlier work
T1 sequence (Q9UK80 1-565): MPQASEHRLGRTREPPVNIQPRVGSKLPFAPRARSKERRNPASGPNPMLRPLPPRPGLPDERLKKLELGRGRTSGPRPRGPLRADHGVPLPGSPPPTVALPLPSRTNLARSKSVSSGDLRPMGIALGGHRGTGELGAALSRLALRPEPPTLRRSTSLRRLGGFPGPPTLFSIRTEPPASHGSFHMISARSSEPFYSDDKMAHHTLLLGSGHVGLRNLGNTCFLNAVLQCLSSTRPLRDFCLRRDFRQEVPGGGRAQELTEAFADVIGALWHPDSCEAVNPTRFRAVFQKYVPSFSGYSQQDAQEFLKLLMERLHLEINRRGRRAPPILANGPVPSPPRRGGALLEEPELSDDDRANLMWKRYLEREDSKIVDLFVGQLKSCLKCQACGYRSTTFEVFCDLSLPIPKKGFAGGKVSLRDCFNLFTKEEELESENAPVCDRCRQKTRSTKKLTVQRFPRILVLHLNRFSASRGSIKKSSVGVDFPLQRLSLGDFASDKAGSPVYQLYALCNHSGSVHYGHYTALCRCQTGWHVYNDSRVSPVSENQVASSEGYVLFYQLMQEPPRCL

[2] = target: USP 10 (h) (Homo sapiens, UniProt Q14694); conditions: reference compound; LanthaScreen DUB substrate 10 nM, 60 min/22° C.; cited from earlier work
USP 10 (h), sequence (Q14694 whole entry): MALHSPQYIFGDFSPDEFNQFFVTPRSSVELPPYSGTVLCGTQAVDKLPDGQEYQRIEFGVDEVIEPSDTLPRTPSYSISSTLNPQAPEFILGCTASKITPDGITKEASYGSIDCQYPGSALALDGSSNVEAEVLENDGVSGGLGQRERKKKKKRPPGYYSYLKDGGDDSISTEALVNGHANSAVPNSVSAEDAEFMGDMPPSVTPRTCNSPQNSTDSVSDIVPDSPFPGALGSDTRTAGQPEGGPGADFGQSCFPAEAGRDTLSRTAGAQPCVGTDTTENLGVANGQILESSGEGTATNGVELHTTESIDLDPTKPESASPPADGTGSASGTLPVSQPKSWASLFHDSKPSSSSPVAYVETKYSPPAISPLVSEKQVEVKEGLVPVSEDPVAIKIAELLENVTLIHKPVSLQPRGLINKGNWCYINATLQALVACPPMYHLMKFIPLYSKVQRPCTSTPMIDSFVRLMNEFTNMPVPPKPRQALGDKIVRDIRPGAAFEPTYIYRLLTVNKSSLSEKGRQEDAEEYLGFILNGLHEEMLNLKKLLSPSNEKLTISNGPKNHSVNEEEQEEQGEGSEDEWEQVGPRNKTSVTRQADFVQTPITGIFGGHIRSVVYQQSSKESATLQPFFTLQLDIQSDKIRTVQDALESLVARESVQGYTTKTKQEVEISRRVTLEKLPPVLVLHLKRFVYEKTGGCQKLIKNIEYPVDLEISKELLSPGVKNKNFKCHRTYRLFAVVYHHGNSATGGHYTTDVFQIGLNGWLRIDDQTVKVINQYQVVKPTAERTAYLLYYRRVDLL

[3] = target: T2, BAP1 (h) (Homo sapiens, UniProt Q92560); assay: Epigenetic enzyme assay, Ubiquitin modifying enzymes; assay type: biochemical; conditions: Table 10; read-out: Reference IC50
T2 sequence (Q92560 1-729): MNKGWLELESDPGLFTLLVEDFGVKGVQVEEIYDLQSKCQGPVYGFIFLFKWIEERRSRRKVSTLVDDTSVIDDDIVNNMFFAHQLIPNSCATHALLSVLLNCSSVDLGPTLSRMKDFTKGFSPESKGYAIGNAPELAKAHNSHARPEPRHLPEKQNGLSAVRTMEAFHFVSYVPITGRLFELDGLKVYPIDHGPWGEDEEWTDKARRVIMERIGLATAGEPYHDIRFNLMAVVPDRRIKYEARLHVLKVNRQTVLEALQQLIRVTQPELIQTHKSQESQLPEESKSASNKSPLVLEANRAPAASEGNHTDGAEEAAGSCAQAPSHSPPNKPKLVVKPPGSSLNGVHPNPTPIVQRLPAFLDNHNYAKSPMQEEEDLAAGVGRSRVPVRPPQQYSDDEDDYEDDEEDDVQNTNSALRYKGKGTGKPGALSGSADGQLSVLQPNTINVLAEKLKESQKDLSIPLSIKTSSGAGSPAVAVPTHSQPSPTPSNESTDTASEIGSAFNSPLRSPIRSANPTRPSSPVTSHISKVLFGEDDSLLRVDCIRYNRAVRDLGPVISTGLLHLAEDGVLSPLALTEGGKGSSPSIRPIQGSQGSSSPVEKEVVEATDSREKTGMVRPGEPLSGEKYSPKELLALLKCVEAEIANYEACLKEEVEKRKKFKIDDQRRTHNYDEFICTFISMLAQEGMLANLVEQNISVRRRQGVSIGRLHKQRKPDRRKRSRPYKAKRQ

[4] = target: T3, USP 14 (h) (Homo sapiens, UniProt P54578); assay: as above; assay type: biochemical; conditions: Table 10; read-out: Reference IC50
T3 sequence (P54578 whole entry): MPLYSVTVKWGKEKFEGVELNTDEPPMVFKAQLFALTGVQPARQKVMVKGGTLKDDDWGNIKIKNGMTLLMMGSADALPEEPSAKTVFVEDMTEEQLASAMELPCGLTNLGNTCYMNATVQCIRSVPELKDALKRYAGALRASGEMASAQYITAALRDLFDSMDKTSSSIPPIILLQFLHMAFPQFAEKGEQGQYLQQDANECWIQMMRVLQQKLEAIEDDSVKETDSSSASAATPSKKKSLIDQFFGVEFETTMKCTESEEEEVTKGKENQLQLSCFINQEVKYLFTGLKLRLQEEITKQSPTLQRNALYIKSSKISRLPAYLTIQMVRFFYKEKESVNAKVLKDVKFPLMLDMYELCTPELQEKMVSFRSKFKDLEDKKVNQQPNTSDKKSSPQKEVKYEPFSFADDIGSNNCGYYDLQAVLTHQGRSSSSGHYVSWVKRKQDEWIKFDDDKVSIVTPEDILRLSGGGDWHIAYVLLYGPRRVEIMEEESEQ

[5] = target: T1, USP 21 (h); assay: as above; assay type: biochemical; conditions: Table 10; read-out: Reference IC50
[6] = target: T3, USP 14 (h); conditions: reference compound; LanthaScreen DUB substrate 10 nM, 240 min/RT; cited from earlier work
[7] = target: T4, USP 7 (h) (Homo sapiens, UniProt Q93009); conditions: reference compound; LanthaScreen DUB substrate 10 nM, 60 min/RT; cited from earlier work
T4 sequence (Q93009 whole entry): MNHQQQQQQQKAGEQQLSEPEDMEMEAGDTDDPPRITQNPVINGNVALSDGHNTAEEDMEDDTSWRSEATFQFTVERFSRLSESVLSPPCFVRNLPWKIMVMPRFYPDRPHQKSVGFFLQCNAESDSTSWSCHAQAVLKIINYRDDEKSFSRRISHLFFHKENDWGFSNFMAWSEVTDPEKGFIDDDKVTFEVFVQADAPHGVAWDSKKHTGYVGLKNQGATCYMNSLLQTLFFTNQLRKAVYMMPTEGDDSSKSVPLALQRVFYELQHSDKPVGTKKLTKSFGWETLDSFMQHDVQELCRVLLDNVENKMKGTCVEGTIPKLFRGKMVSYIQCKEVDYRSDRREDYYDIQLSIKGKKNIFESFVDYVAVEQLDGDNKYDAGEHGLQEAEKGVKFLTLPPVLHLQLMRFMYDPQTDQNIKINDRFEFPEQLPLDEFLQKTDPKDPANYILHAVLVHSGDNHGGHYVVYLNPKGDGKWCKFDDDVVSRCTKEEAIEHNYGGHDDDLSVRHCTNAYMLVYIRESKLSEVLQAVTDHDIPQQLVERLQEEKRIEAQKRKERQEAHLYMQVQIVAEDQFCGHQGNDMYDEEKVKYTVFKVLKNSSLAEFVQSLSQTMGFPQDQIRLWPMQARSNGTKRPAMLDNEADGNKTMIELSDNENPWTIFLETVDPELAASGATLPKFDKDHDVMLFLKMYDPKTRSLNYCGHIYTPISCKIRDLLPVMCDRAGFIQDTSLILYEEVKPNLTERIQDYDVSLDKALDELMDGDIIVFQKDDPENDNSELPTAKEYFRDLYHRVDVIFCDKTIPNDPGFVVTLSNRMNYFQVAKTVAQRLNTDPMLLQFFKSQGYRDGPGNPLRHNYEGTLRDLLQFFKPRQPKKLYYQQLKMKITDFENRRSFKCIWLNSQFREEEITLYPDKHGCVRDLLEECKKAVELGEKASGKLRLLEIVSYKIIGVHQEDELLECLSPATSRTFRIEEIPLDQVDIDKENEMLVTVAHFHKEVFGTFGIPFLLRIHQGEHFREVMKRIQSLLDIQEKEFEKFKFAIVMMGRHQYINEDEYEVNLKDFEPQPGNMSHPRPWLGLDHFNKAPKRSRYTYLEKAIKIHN

[8] = target: T2, BAP1 (h); conditions: reference compound; LanthaScreen DUB substrate 20 nM, 180 min/RT; cited from earlier work
[9] = target: T4, USP 7 (h); assay: Epigenetic enzyme assay, Ubiquitin modifying enzymes; assay type: biochemical; conditions: Table 10; read-out: Reference IC50
[10] = target: T5, PCAF (h) bromodomain (Homo sapiens, UniProt Q92831); assay: Epigenetic binding assay, Bromodomain; conditions: Table 4; read-out: Reference IC50
T5 construct: Bromodomain
T5 sequence (Q92831 723-827 limits assumed): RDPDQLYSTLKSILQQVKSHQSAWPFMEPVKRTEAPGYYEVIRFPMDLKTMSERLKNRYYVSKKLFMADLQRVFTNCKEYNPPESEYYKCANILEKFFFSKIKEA

[11] = target: T5, PCAF (h) bromodomain; conditions: ligand biotin-H4 tetra acetyl Lys 5/8/12/16 100 nM; 30 min/RT; AlphaScreen; read-out: Reference IC50; cited from earlier work
[12] = target: T6, KAT2A (GCN5L2) (h) bromodomain (Homo sapiens, UniProt Q92830); conditions: ligand biotin-H4 tetra acetyl Lys 5/8/12/16 30 nM; 15 min/RT; AlphaScreen; read-out: Reference IC50; cited from earlier work
T6 construct: Bromodomain
T6 sequence (Q92830 728-832 limits assumed): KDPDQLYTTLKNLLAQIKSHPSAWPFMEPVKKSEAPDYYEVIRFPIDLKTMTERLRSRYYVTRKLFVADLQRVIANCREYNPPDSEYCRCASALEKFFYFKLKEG

[13] = target: T7, ASH1L (h) bromodomain (Homo sapiens, UniProt Q9NR48); assay: Epigenetic binding assay, Bromodomain
T7 construct: ASH1L (h) bromodomain

[14] = target: T6, KAT2A (GCN5L2) (h) bromodomain; assay: Epigenetic binding assay, Bromodomain; conditions: Table 4; read-out: Reference IC50
[15] = target: T7, ASH1L (h) bromodomain; conditions: ligand biotin-H4 di acetyl Lys 5/8 75 nM; 30 min/RT; AlphaScreen; read-out: Reference IC50; cited from earlier work
[16] = target: T8, ATAD2A (h) bromodomain (Homo sapiens, UniProt Q6PL18); assay: Epigenetic binding assay, Bromodomain; conditions: Table 4; read-out: Reference IC50
T8 construct: Bromodomain
T8 sequence (Q6PL18 980-1092 limits assumed): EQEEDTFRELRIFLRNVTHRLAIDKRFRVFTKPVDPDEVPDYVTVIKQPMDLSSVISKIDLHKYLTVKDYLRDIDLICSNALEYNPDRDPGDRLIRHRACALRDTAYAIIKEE

[17] = target: T8, ATAD2A (h) bromodomain; conditions: ligand biotin-H4 tetra acetyl Lys 5/8/12/16 100 nM; 30 min/RT; AlphaScreen; read-out: Reference IC50; cited from earlier work
[18] = target: T9, Sirtuin 7 (h) (Homo sapiens, UniProt Q9NRC8); assay: Epigenetic enzyme assay, Sirtuins; assay type: biochemical; conditions: Table 10; read-out: Reference IC50
T9 sequence (Q9NRC8 1-400): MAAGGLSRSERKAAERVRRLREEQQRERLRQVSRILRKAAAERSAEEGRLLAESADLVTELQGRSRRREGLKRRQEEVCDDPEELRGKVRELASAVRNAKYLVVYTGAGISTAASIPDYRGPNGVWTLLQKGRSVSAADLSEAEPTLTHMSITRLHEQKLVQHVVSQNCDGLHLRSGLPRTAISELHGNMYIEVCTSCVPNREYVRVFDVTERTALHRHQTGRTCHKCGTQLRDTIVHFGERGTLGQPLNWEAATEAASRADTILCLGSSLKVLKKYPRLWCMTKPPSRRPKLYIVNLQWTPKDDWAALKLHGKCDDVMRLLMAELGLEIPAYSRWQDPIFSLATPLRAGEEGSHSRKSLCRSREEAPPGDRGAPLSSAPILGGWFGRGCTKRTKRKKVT

[19] = target: T9, Sirtuin 7 (h); conditions: reference compound; fluorogenic HDAC 25 μM; 60 min/37° C.; cited from earlier work

IC50 [3]: 0.23 µM | IC50 [4]: 0.004 µM | IC50 [5]: 0.17 µM | IC50 [9]: 0.11 µM
Compound: Ubiquitin Aldehyde
IC50 [1]: 0.17 µM | IC50 [2]: 0.23 µM | IC50 [6]: 0.004 µM | IC50 [7]: 0.11 µM | IC50 [8]: 0.23 µM

Compound: Cc1sc2c(c1C)C(c1ccc(Cl)cc1)=N[C@@H](CC(=O)OC(C)(C)C)c1nnc(C)n1-2 [JQ-1, reference compound]
IC50 [10]: 12 µM | IC50 [11]: 12 µM | IC50 [12]: 45 µM | IC50 ([13]; Table 4, read-out: Reference IC50): 13.8 µM | IC50 ([13]; Table 9, inhibition/concentration-response curve, read-out: IC50): 8.7 µM | IC50 [14]: 45 µM | IC50 [15]: 13.8 µM | IC50 [16]: 70 µM | IC50 [17]: 70 µM

Compound: O=C1c2ccccc2C(=O)c2c(NCCc3ccc(O)cc3)ccc(NCCc3ccc(O)cc3)c21 [JFD00244, reference compound]
IC50 [18]: 1300 µM | IC50 [19]: 1300 µM
